Measured values from ChEMBL document CHEMBL5291721, “A preclinical secondary pharmacology resource illuminates target-adverse drug reaction associations of marketed drugs” (Nat Commun, 2023).

Experiments:
Cannabinoid receptor 1 [1] = target: T1, Cannabinoid receptor 1 (Homo sapiens, UniProt P21554); assay type: functional, cell-based
Cannabinoid receptor 1 [2] = target: T1, Cannabinoid receptor 1; assay type: functional, cell-based; remark: listed apart in the source
Cannabinoid receptor 1 [3] = target: T1, Cannabinoid receptor 1
D(1A) dopamine receptor = D(1A) dopamine receptor (Homo sapiens, UniProt P21728); assay type: functional, cell-based
Estrogen receptor = target: T2, Estrogen receptor (Homo sapiens, UniProt P03372)
T2 sequence (P03372 whole entry): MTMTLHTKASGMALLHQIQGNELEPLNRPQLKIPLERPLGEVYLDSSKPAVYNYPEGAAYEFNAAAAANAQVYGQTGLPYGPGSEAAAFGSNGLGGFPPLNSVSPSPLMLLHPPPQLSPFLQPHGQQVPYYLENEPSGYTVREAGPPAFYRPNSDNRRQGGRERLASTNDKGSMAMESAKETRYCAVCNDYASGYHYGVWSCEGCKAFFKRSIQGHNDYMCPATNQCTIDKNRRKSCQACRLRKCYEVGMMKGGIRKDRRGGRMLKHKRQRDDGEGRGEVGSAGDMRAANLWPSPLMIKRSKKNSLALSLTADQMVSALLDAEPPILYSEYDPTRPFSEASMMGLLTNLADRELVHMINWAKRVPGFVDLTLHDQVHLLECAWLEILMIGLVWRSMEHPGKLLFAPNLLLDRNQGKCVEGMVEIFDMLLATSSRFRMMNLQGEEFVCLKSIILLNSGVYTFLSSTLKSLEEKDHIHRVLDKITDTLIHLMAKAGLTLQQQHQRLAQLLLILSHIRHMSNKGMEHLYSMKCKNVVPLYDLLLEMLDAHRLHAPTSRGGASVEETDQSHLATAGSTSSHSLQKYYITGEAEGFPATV

Melanocortin receptor 4 = Melanocortin receptor 4 (Homo sapiens, UniProt P32245)
Motilin receptor = Motilin receptor (Homo sapiens, UniProt O43193)
Mu-type opioid receptor = Mu-type opioid receptor (Homo sapiens, UniProt P35372)
[4] = target: T3, 5-hydroxytryptamine receptor 2A (Homo sapiens, UniProt P28223); assay type: functional, cell-based
[5] = target: T3, 5-hydroxytryptamine receptor 2A; assay type: functional, cell-based; remark: listed apart in the source
[6] = target: T4, Alpha-1A adrenergic receptor (Homo sapiens, UniProt P35348)
T4 sequence (P35348 whole entry): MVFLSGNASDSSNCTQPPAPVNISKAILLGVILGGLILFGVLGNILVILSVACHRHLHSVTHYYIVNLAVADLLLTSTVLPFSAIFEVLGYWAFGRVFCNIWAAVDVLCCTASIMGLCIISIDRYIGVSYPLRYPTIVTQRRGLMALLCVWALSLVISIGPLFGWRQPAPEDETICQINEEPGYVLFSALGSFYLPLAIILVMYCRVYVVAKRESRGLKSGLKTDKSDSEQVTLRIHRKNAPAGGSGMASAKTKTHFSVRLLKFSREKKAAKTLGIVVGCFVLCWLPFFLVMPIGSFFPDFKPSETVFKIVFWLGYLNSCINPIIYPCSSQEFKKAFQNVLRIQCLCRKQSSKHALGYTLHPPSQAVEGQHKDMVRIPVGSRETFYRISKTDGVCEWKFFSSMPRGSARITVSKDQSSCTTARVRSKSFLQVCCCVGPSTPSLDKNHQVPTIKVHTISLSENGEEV

[7] = target: T5, 5-hydroxytryptamine receptor 1A (Homo sapiens, UniProt P08908); assay type: functional, cell-based
T5 sequence (P08908 whole entry): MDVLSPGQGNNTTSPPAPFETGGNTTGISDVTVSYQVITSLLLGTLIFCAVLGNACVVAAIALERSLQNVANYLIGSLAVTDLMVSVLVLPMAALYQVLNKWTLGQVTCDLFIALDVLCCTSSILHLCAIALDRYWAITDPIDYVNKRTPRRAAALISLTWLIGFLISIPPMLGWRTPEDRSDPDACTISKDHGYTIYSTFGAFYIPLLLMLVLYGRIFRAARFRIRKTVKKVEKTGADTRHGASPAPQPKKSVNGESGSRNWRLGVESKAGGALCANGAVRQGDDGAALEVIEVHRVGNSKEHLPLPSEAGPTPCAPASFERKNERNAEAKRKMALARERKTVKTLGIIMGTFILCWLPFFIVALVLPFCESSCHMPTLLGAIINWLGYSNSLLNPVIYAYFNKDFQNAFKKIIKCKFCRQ

[8] = target: Beta-2 adrenergic receptor (Homo sapiens, UniProt P07550); assay type: functional, cell-based
Endothelin-1 receptor = target: T6, Endothelin-1 receptor (Homo sapiens, UniProt P25101)
T6 sequence (P25101 whole entry): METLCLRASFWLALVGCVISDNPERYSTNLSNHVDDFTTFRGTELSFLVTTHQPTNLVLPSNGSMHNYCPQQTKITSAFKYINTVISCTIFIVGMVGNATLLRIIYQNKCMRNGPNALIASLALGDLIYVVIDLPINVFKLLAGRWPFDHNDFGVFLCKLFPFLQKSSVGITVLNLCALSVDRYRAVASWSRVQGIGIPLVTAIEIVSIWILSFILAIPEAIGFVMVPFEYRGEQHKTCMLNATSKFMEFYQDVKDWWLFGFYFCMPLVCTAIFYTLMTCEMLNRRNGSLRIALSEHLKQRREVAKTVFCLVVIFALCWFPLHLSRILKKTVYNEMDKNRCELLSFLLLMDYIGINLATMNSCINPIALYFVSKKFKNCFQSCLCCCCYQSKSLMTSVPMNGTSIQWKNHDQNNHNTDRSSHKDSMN
Also: assay procedure not described here.

T1 sequence (P21554 whole entry): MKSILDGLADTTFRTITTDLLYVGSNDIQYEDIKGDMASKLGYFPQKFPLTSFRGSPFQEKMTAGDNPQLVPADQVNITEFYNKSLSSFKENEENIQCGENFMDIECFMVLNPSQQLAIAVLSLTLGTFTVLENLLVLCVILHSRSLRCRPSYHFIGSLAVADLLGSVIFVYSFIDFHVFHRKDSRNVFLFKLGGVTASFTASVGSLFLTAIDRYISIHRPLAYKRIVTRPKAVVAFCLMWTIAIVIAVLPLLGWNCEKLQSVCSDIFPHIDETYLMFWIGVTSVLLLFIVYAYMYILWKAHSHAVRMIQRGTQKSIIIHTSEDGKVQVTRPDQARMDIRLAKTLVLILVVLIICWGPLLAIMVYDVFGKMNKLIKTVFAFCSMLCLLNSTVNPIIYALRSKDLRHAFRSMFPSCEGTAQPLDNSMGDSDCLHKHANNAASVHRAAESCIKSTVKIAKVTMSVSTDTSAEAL
Sequence of Beta-2 adrenergic receptor (P07550 whole entry): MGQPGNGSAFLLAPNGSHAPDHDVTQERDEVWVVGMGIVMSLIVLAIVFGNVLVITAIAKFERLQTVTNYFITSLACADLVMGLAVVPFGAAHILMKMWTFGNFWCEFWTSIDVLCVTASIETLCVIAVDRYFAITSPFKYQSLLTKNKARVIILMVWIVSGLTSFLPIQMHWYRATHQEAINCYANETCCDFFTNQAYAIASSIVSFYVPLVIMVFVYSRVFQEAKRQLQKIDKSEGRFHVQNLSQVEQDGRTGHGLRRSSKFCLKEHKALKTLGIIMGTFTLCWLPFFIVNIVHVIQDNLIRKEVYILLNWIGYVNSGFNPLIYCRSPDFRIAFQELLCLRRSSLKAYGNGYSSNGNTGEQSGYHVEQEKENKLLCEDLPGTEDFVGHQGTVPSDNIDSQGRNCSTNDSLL
Sequence of Mu-type opioid receptor (P35372 whole entry): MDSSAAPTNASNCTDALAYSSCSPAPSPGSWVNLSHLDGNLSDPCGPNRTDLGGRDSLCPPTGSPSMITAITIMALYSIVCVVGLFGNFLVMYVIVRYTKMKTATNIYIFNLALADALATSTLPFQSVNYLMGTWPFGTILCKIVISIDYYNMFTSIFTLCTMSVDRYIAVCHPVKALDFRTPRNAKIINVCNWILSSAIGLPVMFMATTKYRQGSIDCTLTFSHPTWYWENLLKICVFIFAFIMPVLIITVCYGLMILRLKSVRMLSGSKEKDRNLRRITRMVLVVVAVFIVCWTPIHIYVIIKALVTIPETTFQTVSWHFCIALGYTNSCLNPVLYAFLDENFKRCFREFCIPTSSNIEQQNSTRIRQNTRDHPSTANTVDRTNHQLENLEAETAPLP
T3 sequence (P28223 whole entry): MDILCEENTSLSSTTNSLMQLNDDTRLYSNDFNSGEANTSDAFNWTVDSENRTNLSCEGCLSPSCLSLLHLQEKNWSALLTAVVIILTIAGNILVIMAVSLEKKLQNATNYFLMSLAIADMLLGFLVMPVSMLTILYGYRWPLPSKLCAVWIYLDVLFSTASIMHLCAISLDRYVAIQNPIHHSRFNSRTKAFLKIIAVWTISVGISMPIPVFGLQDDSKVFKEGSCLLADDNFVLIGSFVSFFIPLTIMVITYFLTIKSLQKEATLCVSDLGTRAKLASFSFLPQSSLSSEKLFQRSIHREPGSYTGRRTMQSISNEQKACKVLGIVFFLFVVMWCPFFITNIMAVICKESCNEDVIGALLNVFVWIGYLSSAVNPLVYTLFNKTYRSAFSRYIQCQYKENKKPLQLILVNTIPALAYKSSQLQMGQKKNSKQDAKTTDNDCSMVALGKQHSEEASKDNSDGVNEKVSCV
Sequence of Motilin receptor (O43193 whole entry): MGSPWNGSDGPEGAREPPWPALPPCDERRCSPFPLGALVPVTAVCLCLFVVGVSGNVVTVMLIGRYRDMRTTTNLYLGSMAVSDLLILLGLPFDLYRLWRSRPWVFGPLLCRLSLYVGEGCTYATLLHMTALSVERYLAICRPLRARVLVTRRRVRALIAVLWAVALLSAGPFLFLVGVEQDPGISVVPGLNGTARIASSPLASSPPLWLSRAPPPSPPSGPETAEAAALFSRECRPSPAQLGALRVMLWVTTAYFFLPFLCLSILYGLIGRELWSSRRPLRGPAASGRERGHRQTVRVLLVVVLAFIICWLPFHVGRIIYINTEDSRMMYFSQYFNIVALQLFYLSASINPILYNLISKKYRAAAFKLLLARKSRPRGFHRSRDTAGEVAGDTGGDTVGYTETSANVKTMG
Sequence of D(1A) dopamine receptor (P21728 whole entry): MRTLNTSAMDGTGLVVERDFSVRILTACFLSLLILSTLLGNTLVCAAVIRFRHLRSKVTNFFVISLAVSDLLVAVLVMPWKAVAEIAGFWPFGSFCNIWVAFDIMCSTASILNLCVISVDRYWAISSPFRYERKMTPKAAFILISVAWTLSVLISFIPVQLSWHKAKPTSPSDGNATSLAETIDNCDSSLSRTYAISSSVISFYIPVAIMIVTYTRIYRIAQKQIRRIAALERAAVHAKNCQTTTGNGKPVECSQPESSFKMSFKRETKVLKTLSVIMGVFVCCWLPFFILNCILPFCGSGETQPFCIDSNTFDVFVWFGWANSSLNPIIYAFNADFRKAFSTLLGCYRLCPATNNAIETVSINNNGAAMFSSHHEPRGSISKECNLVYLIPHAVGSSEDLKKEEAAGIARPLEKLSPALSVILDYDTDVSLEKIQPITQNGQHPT
Sequence of Melanocortin receptor 4 (P32245 whole entry): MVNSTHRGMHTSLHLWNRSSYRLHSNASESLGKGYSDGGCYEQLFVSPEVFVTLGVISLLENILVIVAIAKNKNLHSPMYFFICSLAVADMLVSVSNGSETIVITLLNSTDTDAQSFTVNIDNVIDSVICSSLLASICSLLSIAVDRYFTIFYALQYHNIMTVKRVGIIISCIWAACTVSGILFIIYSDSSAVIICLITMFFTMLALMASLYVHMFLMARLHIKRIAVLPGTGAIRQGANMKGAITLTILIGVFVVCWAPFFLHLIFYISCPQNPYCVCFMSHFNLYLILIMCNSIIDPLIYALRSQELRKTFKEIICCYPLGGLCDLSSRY

Structure (SMILES)	AC50 (Cannabinoid receptor 1 [1])	AC50 (Cannabinoid receptor 1 [2])	AC50 (Cannabinoid receptor 1 [3])	AC50 (D(1A) dopamine receptor)	AC50 (Estrogen receptor)	AC50 (Melanocortin receptor 4)	AC50 (Motilin receptor)	AC50 (Mu-type opioid receptor)	AC50 [4]	AC50 [5]	AC50 [6]	AC50 [7]	AC50 [8]	AC50 (Endothelin-1 receptor)
OCc1cc(C(O)CNCCCCCCOCCCCc2ccccc2)ccc1O (stereo not given) [SALMETEROL]	> 30 µM	> 30 µM	> 10 µM	> 30 µM	> 30 µM	> 30 µM	> 10 µM	> 30 µM						
COc1cc2ncnc(Nc3ccc(F)c(Cl)c3)c2cc1NC(=O)/C=C/CN1CCCCC1 [DACOMITINIB ANHYDROUS]									> 30 µM	> 30 µM				
C/C(=C\C(=O)OCCCCCCCCC(=O)O)C[C@@H]1OC[C@H](C[C@@H]2O[C@H]2[C@@H](C)[C@H](C)O)[C@@H](O)[C@H]1O [MUPIROCIN]			> 10 µM	> 10 µM	> 10 µM	> 10 µM	> 10 µM	> 30 µM			> 10 µM	> 10 µM		
O=C1CN=C(c2ccccc2)c2cc([N+](=O)[O-])ccc2N1 [NITRAZEPAM]			> 10 µM	> 30 µM	> 10 µM	> 10 µM	> 10 µM	> 30 µM			> 30 µM	> 10 µM		
NC(=O)CN1CCCC1=O	> 30 µM	> 30 µM		> 30 µM			> 30 µM						> 30 µM	> 30 µM
C[N@+]1(CCF)[C@@H]2CC[C@H]1C[C@@H](OC(=O)C(O)(c1ccccc1)c1ccccc1)C2	> 30 µM	> 30 µM		> 30 µM	> 30 µM		> 30 µM		> 30 µM	> 30 µM				> 30 µM
CC(=O)[C@]1(O)Cc2c(O)c3c(c(O)c2[C@@H](O[C@H]2C[C@H](N)[C@H](O)[C@H](C)O2)C1)C(=O)c1ccccc1C3=O [IDARUBICIN]				> 30 µM			> 10 µM						> 30 µM	> 30 µM
C=C[C@@]1(C)CC(=O)[C@]2(O)[C@@]3(C)[C@@H](O)CCC(C)(C)[C@@H]3[C@H](O)[C@H](OC(C)=O)[C@@]2(C)O1 [COLFORSIN]	> 30 µM	> 30 µM			> 30 µM		> 30 µM		> 30 µM	18 µM		1.2 µM		> 30 µM
NC1CCN(c2nc3c(cc2F)c(=O)c(C(=O)O)cn3-c2ccc(F)cc2F)C1 (stereo not given) [TOSUFLOXACIN]	> 30 µM	> 30 µM		> 30 µM	> 30 µM		> 30 µM							> 30 µM
O=C(O)CCNC(=O)c1ccccc1 [BETAMIPRON]	> 30 µM	> 30 µM		> 30 µM	> 30 µM		> 30 µM					> 30 µM	> 30 µM	> 30 µM
CCOC(=O)O[C@]1(C(=O)OCCl)CC[C@H]2[C@@H]3CCC4=CC(=O)C=C[C@]4(C)[C@H]3[C@@H](O)C[C@@]21C [LOTEPREDNOL ETABONATE]			> 30 µM	> 30 µM			> 30 µM		> 30 µM	> 30 µM				> 30 µM
CC(=O)SC[C@@H](C)C(=O)N1CCC[C@H]1C(=O)N[C@@H](Cc1ccccc1)C(=O)O	> 30 µM	> 30 µM		> 30 µM	> 30 µM		> 30 µM		> 30 µM	> 30 µM				> 30 µM
CCN(CC)CCNC(=O)c1cc(S(C)(=O)=O)ccc1OC [TIAPRIDE]	> 30 µM	> 30 µM		> 30 µM	> 30 µM		> 30 µM					> 30 µM		> 30 µM
CC1=C(C)C(=O)C(C(CCCCCC(=O)O)c2ccccc2)=C(C)C1=O (stereo not given) [SERATRODAST]			> 30 µM	> 30 µM	> 30 µM	> 30 µM	> 30 µM		> 30 µM	> 30 µM	> 30 µM			
C#CCOc1ccc(N)cc1C(=O)NCCCC [PARSALMIDE]	> 30 µM	> 30 µM		> 30 µM	> 30 µM		> 30 µM		> 30 µM	30 µM		> 30 µM		> 30 µM
COc1ccc2nc3cc(Cl)ccc3c(Nc3cc(CN4CCCC4)c(O)c(CN4CCCC4)c3)c2n1 [PYRONARIDINE]	> 30 µM	> 30 µM		> 30 µM	> 30 µM		> 30 µM		> 30 µM	> 30 µM				> 30 µM
CCCCCCCCCCCCCCCCCCCCCC(=O)Nc1ccn([C@@H]2O[C@H](CO)[C@@H](O)[C@@H]2O)c(=O)n1 [ENOCITABINE]	> 30 µM	> 30 µM		> 30 µM			> 30 µM		> 30 µM	> 30 µM				> 30 µM
CN(C(=O)c1c(O)c2ccccc2n(C)c1=O)c1ccccc1 [ROQUINIMEX]									> 30 µM	> 30 µM				
CCN1CCCC1CNC(=O)c1cc(S(=O)(=O)CC)c(N)cc1OC (stereo not given) [AMISULPRIDE]	> 30 µM	> 30 µM		> 30 µM	> 30 µM						> 30 µM	> 30 µM	> 30 µM	> 30 µM
COc1cc2c(cc1OC)C(CCc1ccc(Cl)cc1)N(C)CC2 (stereo not given) [METHOPHOLINE]			> 10 µM	> 10 µM	> 30 µM	> 30 µM	> 30 µM	> 30 µM	> 10 µM	> 10 µM	> 10 µM	> 10 µM		
Nc1cc(-c2ccncc2)c[nH]c1=O [INAMRINONE]	> 30 µM	> 30 µM	> 10 µM	> 10 µM	> 30 µM	> 30 µM	> 10 µM	> 30 µM			> 10 µM	> 10 µM	> 30 µM	
CC(=O)[C@@]1(O)CC[C@H]2[C@@H]3C=C(Cl)C4=CC(=O)[C@@H]5C[C@@H]5[C@]4(C)[C@H]3CC[C@@]21C [CYPROTERONE]			> 10 µM	2.07 µM	> 30 µM	> 10 µM	> 10 µM	> 30 µM	> 10 µM	> 10 µM	> 10 µM	> 10 µM		
